# From US11964953B2, “Substituted aminothiazoles as DGKzeta inhibitors for immune activation” (Bayer Aktiengesellschaft, priority 2020, dated 2024)
# Target: human DGKζ (Homo sapiens (Human), UniProt Q13574)
# Experiment: Human DGKζ kinase activity inhibition assay (ADP-Glo)
# Type: biochemical
# Details: in vitro human DGKζ kinase activity inhibition assay; read-out: IC50
# Procedure, shortened: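 Enzyme was C-terminally FLAG-tagged full-length recombinant human DGKζ from baculovirus-infected insect cells. Substrate preparation used octyl-β-D-glucopyranoside in 50 mM MOPS pH 7.4 with sonication; ADP generated was quantified by ADP-Glo luminescence as activity measure.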
# Sequence of human DGKζ (Q13574 other isoform, or with tags, fused parts or gaps): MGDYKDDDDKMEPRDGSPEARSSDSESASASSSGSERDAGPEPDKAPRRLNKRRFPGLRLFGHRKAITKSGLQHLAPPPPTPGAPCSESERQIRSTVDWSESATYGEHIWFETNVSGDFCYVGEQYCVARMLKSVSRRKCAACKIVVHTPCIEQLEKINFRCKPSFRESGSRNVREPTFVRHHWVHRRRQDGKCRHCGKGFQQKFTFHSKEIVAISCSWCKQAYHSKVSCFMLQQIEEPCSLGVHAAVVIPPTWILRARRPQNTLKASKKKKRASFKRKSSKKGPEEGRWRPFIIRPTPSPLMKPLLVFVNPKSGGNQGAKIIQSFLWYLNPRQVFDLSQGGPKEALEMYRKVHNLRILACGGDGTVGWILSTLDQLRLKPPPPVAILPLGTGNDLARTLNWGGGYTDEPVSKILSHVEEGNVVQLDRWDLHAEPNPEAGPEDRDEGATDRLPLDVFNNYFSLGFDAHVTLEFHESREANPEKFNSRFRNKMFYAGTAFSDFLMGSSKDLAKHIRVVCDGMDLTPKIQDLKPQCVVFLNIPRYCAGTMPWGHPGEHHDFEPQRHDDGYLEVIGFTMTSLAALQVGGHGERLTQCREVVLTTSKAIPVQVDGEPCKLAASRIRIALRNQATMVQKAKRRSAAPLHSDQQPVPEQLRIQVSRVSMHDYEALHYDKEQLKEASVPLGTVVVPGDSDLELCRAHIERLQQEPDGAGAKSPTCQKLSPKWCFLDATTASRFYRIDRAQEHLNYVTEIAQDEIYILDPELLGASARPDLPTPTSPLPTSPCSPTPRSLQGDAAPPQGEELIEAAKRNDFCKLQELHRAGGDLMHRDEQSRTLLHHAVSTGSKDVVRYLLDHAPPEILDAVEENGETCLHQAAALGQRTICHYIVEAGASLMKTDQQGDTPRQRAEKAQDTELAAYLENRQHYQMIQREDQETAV
row,SMILES,IC50 [nM]
1,"CC(C(N)=O)N(c1ccc(OC(F)F)c(Cl)c1)c1nc(N)c(C(=O)c2ccc(OC(F)F)nc2)s1 (racemic) [Example 204, rac-2-[N-[4-amino-5-[6-(difluoromethoxy)pyridine-3-carbonyl]thiazol-2-yl]-3-chloro-4-(difluoromethoxy)anilino]propanamide]",73
2,"CC(C(N)=O)N(c1ccc(F)cc1)c1nc(N)c(C(=O)c2ccc(OCCO)cc2)s1 (racemic) [Example 292, rac-2-(N-[4-amino-5-[4-(2-hydroxyethoxy)benzoyl]thiazol-2-yl]-4-fluoro-anilino)propanamide]",282
3,"CC(C(N)=O)N(c1ccc(F)cc1)c1nc(N)c(C(=O)c2ccc(OCC(=O)N3CCc4ccccc4C3)cc2)s1 (racemic) [Example 133, rac-2-(N-[4-amino-5-[4-[2-(3,4-dihydro-1H-isoquinolin-2-yl)-2-oxo-ethoxy]benzoyl]thiazol-2-yl]-4-fluoro-anilino)propanamide]",42.5
4,"COc1ccc(C(=O)c2sc(N(c3ccc(OC(F)(F)F)c(F)c3)C(C)C(N)=O)nc2N)cc1 (racemic) [Example 217, rac-2-[N-[4-amino-5-(4-methoxybenzoyl)thiazol-2-yl]-3-fluoro-4-(trifluoromethoxy)anilino]propanamide]",41
5,"CC(Oc1ccc(C(=O)c2sc(N(c3ccccc3)C(C)C(N)=O)nc2N)cc1)C(N)=O (racemic) [Example 45, 2-(N-[4-amino-5-[4-[2-amino-1-methyl-2-oxo-ethoxy]benzoyl]thiazol-2-yl]anilino)propanamide]",338
6,"CC(C(N)=O)N(c1ccc(F)cc1)c1nc(N)c(C(=O)c2ccc(O)cc2)s1 (single isomer, unassigned) [Example 286, 2-(N-[4-amino-5-(4-hydroxybenzoyl)thiazol-2-yl]-4-fluoro-anilino)propanamide (single enantiomer)]",31
7,"COc1ccc(C(=O)c2sc(N(c3ccc(OC(F)F)nc3)C(C)C(N)=O)nc2N)cc1 (racemic) [Example 252, rac-2-[[4-amino-5-(4-methoxybenzoyl)thiazol-2-yl]-[6-(difluoromethoxy)-3-pyridyl]amino]propanamide]",106
8,"COc1cc(C(=O)c2sc(N(c3ccc(F)cc3)C(C)C(N)=O)nc2N)ccn1 (racemic) [Example 190, rac-2-(N-[4-amino-5-(2-methoxypyridine-4-carbonyl)thiazol-2-yl]-4-fluoro-anilino)propanamide]",553
9,"CC(C(N)=O)N(c1ccc(Cl)c(F)c1)c1nc(N)c(C(=O)c2ccc(C(=O)NCCOC(F)(F)F)cc2)s1 (racemic) [Example 269, rac-4-[4-amino-2-(N-(2-amino-1-methyl-2-oxo-ethyl)-4-chloro-3-fluoro-anilino)thiazole-5-carbonyl]-N-[2-(trifluoromethoxy)ethyl]benzamide]",12
10,"Cc1ccc(C(=O)c2sc(N(c3ccc(F)cc3)C(C)C(N)=O)nc2N)cc1 (single isomer, unassigned) [Example 63.1, 2-(N-[4-amino-5-(4-methylbenzoyl)thiazol-2-yl]-4-fluoro-anilino)propanamide]",5170
11,"CC(C(N)=O)N(c1ccc(F)cc1)c1nc(N)c(C(=O)c2ccc(NC(=O)OCc3ccccc3)nc2)s1 (racemic) [Example 256, rac-benzyl N-[5-[4-amino-2-(N-(2-amino-1-methyl-2-oxo-ethyl)-4-fluoro-anilino)thiazole-5-carbonyl]-2-pyridyl]carbamate]",9
12,"CC(C(N)=O)N(c1ccc(F)c(F)c1)c1nc(N)c(C(=O)c2ccc(NC(=O)OCc3ccccc3)cc2)s1 (single isomer, unassigned) [Example 167.2, Benzyl N-[4-[4-amino-2-(N-(2-amino-1-methyl-2-oxo-ethyl)-3,4-difluoro-anilino)thiazole-5-carbonyl]phenyl]carbamate]",303
13,"C[C@H](C(N)=O)N(c1ccc(F)cc1)c1nc(N)c(C(=O)c2ccccc2)s1 [Example 61.2, (R)-2-(N-(4-amino-5-benzoyl-thiazol-2-yl)-4-fluoro-anilino)propanamide]",108
14,"COc1ccc(C(=O)c2sc(N(c3ccc(F)cc3)C(C)C(N)=O)nc2C)cc1 (single isomer, unassigned) [Example 176.2, 2-(4-fluoro-N-[5-(4-methoxybenzoyl)-4-methyl-thiazol-2-yl]anilino)propanamide]",672
15,"CC(C(N)=O)N(c1ccc(F)cc1)c1nc(N)c(C(=O)c2ccc(OC(F)F)nc2)s1 (single isomer, unassigned) [Example 162.2, 2-(N-[4-amino-5-[6-(difluoromethoxy)pyridine-3-carbonyl]thiazol-2-yl]-4-fluoro-anilino)propanamide]",6570
16,"CC(C(N)=O)N(c1ccc(F)cc1)c1nc(N)c(C(=O)c2ccc(OCC(=O)NC34CC5CC(CC(C5)C3)C4)cc2)s1 (single isomer, unassigned) [Example 142, 2-(N-[5-[4-[2-(1-adamantylamino)-2-oxo-ethoxy]benzoyl]-4-amino-thiazol-2-yl]-4-fluoro-anilino)propanamide]",14.5

row,SMILES,IC50 [nM]
1,"CC(C(N)=O)N(c1ccc(F)cc1)c1nc(N)c(C(=O)c2ccc(OCC(=O)NCCN3CCCCC3)cc2)s1 (racemic) [Example 89, rac-2-(N-[4-amino-5-[4-[2-oxo-2-[2-(1-piperidyl)ethylamino]ethoxy]benzoyl]thiazol-2-yl]-4-fluoro-anilino)propanamide]",131
2,"Cc1cccc(N(c2nc(N)c(C(=O)c3ccccc3)s2)C(C)C(N)=O)c1 (racemic) [Example 76, rac-2-(N-(4-amino-5-benzoyl-thiazol-2-yl)-3-methyl-anilino)propanamide]",252
3,"CC(C(N)=O)N(c1ccc(F)cc1)c1nc(N)c(C(=O)c2ccc(C(=O)NC3CCCC3)cc2)s1 (racemic) [Example 267, rac-4-[4-amino-2-(N-(2-amino-1-methyl-2-oxo-ethyl)-4-fluoro-anilino)thiazole-5-carbonyl]-N-cyclopentyi-benzamide]",63
4,"CC(C(N)=O)N(c1ccc(F)cc1)c1nc(N)c(C(=O)c2ccc(C#N)cc2)s1 (single isomer, unassigned) [Example 33.1, 2-(N-[4-amino-5-(4-cyanobenzoyl)thiazol-2-yl]-4-fluoro-anilino)propanamide]",8610
5,"CC(C(N)=O)N(c1ccc(F)cc1)c1nc(N)c(C(=O)c2ccc(N3CC4CC4C3)nc2)s1 (racemic) [Example 282, rac-2-(N-[4-amino-5-[6-(3-azabicyclo[3.1.0]hexan-3-yl)pyridine-3-carbonyl]thiazol-2-yl]-4-fluoro-anilino)propanamide]",53
6,"COc1ccc(C(=O)c2sc(N(c3ccc(Cl)cc3)C(C)C(N)=O)nc2N)cc1 (single isomer, unassigned) [Example 58.2, 2-(N-[4-amino-5-(4-methoxybenzoyl)thiazol-2-yl]-4-chloro-anilino)propanamide]",1050
7,"CC(C(N)=O)N(c1ccc(C(F)F)cc1)c1nc(N)c(C(=O)c2ccc(OC(F)F)nc2)s1 (racemic) [Example 247, rac-2-[N-[4-amino-5-[6-(difluoromethoxy)pyridine-3-carbonyl]thiazol-2-yl]-4-(difluoromethyl)anilino]propanamide]",40
8,"COc1ccc(C(=O)c2sc(N(c3ccc4c(c3)OC(F)(F)O4)C(C)C(N)=O)nc2N)cc1 (racemic) [Example 212, rac-2-[[4-amino-5-(4-methoxybenzoyl)thiazol-2-yl]-(2,2-difluoro-1,3-benzodioxol-5-yl)amino]propanamide]",41
9,"COc1ccc(C(=O)c2sc(N(c3ccc(Cl)c(F)c3)C(C)C(N)=O)nc2N)cn1 (racemic) [Example 172, rac-2-(N-[4-amino-5-(6-methoxypyridine-3-carbonyl)thiazol-2-yl]-4-chloro-3-fluoro-anilino)propanamide]",46
10,"Cc1ccccc1N(c1nc(N)c(C(=O)c2ccccc2)s1)C(C)C(N)=O (single isomer, unassigned) [Example 77.1, 2-(N-(4-amino-5-benzoyl-thiazol-2-yl)-2-methyl-anilino)propanamide]",234
11,"CC(C(N)=O)N(c1ccc(F)cc1)c1nc(N)c(C(=O)c2ccc(C(=O)NCc3ccccc3)cc2)s1 (racemic) [Example 262, rac-4-[4-amino-2-(N-(2-amino-1-methyl-2-oxo-ethyl)-4-fluoro-anilino)thiazole-5-carbonyl]-N-benzyl-benzamide]",6
12,"CC(C(N)=O)N(c1ccc(OC(F)(F)F)c(F)c1)c1nc(N)c(C(=O)c2ccc(OC(F)F)cc2)s1 (racemic) [Example 219, rac-2-[N-[4-amino-5-[4-(difluoromethoxy)benzoyl]thiazol-2-yl]-3-fluoro-4-(trifluoromethoxy)anilino]propanamide]",13
13,"CC(C(N)=O)N(c1ccc(F)cc1)c1nc(N)c(C(=O)c2ccc(N(C)C)nc2)s1 (racemic) [Example 278, rac-2-(N-[4-amino-5-[6-(dimethylamino)pyridine-3-carbonyl]thiazol-2-yl]-4-fluoro-anilino)propanamide]",230
14,"CC(C(N)=O)N(c1ccc(C#N)c(F)c1)c1nc(N)c(C(=O)c2ccccc2)s1 (racemic) [Example 192, rac-2-(N-(4-amino-5-benzoyl-thiazol-2-yl)-4-cyano-3-fluoro-anilino)propanamide]",224
15,"CC(C(N)=O)N(c1ccc(Cl)c(Cl)c1)c1nc(N)c(C(=O)c2ccccc2)s1 (racemic) [Example 35, rac-2-(N-(4-amino-5-benzoyl-thiazol-2-yl)-3,4-dichloro-anilino)propanamide]",25.3
16,"CCOC(=O)C(C)(C)Oc1ccc(C(=O)c2sc(N(c3ccc(F)cc3)C(C)C(N)=O)nc2N)cc1 (racemic) [Example 39, Rac-ethyl 2-[4-[4-amino-2-(N-[2-amino-1-methyl-2-oxo-ethyl]-4-fluoro-anilino)thiazole-5-carbonyl]phenoxy]-2-methyl-propanoate]",19
